Reference: US10323036B2 (Nimbus Lakshmi, Inc., priority 2016, dated 2019)

Biological target: human TYK2 (JH2domain-pseudokinase) (Homo sapiens (Human), UniProt P29597)
Assay: TYK2 JH2 Domain Binding Assay (KINOMEscan)
Conditions: Table 4, JH2 binding assay; read-out: JH2 Kd

human TYK2 (JH2domain-pseudokinase), sequence (P29597 556-888): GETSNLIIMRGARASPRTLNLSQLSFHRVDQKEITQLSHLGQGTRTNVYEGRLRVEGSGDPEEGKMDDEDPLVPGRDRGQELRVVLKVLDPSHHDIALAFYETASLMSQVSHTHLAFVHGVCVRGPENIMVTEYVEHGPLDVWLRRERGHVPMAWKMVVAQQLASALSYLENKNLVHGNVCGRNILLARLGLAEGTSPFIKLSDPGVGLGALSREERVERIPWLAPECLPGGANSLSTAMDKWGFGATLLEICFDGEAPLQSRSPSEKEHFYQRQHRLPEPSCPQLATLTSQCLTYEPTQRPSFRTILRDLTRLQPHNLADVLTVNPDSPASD

| Kd [nM] | Compound |
| --- | --- |
| 0.1 to 0.5 | COc1c(Cl)cccc1Nc1cc(Nc2ccc(C(=O)N3CCCC3)c(C(F)(F)F)n2)nc2[nH]n(C)c(=O)c12 [Compound I-128, 4-((3-chloro-2-methoxyphenyl)amino)-2-methyl-6-((5-(pyrrolidine-1-carbonyl)-6-(trifluoromethyl)pyridin-2-yl)amino)-1,2-dihydro-3H-pyrazolo[3,4-b]pyridin-3-one] |
| 0.1 to 0.5 | COc1c(Cl)cccc1Nc1cc(Nc2ccc(C(=O)N3CCOCC3)c(C(F)(F)F)n2)nc2[nH]n(C)c(=O)c12 [Compound I-130, 4-((3-chloro-2-methoxyphenyl)amino)-2-methyl-6-((5-(morpholine-4-carbonyl)-6-(trifluoromethyl)pyridin-2-yl)amino)-1,2-dihydro-3H-pyrazolo[3,4-b]pyridin-3-one] |
| 0.1 to 0.5 | COc1c(Cl)cccc1Nc1cc(Nc2ccc(C)c(C#N)n2)nc2[nH]n(C)c(=O)c12 [Compound I-132, 6-((4-((3-chloro-2-methoxyphenyl)amino)-2-methyl-3-oxo-2,3-dihydro-1H-pyrazolo[3,4-b]pyridin-6-yl)amino)-3-methylpicolinonitrile] |
| 0.1 to 0.5 | COc1c(Nc2cc(Nc3cc(C)c(F)cn3)nc3[nH]n(C)c(=O)c23)cccc1-c1cnc[nH]1 [Compound I-133] |
| 0.1 to 0.5 | COc1c(Cl)cccc1Nc1cc(Nc2ccc(N3CCCC3=O)c(C#N)n2)nc2[nH]n(C)c(=O)c12 [Compound I-134, 6-((4-((3-chloro-2-methoxyphenyl)amino)-2-methyl-3-oxo-2,3-dihydro-1H-pyrazolo[3,4-]pyridin-6-yl)amino)-3-(2-oxopyrrolidin-1-yl)picolinonitrile] |
| 1 to 10 | COc1c(Cl)cccc1Nc1cc(Nc2cnc(C)c(C#N)n2)nc2[nH]n(C)c(=O)c12 [Compound I-135, 6-((4-((3-chloro-2-methoxyphenyl)amino)-2-methyl-3-oxo-2,3-dihydro-1H-pyrazolo[3,4-b]pyridin-6-yl)amino)-3-methylpyrazine-2-carbonitrile] |
| 1 to 10 | COc1c(Cl)cccc1Nc1cc(Nc2ccn(C)n2)nc2[nH]n(C)c(=O)c12 [Compound I-136, 4-((3-chloro-2-methoxyphenyl)amino)-2-methyl-6-((1-methyl-1H-pyrazol 3-yl)amino)-1,2-dihydro-3H-pyrazolo[3,4-b]pyridin-3-one] |
| 0.5 to 1 | Cn1ccc(Nc2cc(Nc3ccccc3S(C)(=O)=O)c3c(=O)n(C)[nH]c3n2)n1 [Compound I-137, 2-methyl-6-((1-methyl-1H-pyrazol-3-yl)amino)-4-((2-(methylsulfonyl)phenyl)amino)-1,2-dihydro-3H-pyrazolo[3,4-b]pyridin-3-one] |
| 0.5 to 1 | Cc1ccnc(Nc2cc(Nc3ccccc3S(C)(=O)=O)c3c(=O)n(C)[nH]c3n2)c1 [Compound I-138, 2-methyl-6-((4-methylpyridin-2-yl)amino)-4-((2-(methylsulfonyl)phenyl)amino)-1,2-dihydro-3H-pyrazolo[3,4-b]pyridin-3-one] |
| 0.1 to 0.5 | Cn1[nH]c2nc(Nc3ccc(C#N)cn3)cc(Nc3ccccc3S(C)(=O)=O)c2c1=O [Compound I-139, 6-((2-methyl-4-((2-(methylsulfonyl)phenyl)amino)-3-oxo-2,3-dihydro-1H-pyrazolo[3,4-b]pyridin-6-yl)amino)nicotinonitrile] |
| 1 to 10 | COC1CN(c2cccc(Nc3cc(Nc4ccccc4S(C)(=O)=O)c4c(=O)n(C)[nH]c4n3)n2)C1 [Compound I-140, 6-((6-(3-methoxyazetidin-1-yl)pyridin-2-yl)amino)-2-methyl-4-((2-(methylsulfonyl)phenyl)amino)-1,2-dihydro-3H-pyrazolo[3,4-b]pyridin-3-one] |
| 0.1 to 0.5 | Cn1[nH]c2nc(Nc3ccccn3)cc(Nc3ccccc3S(C)(=O)=O)c2c1=O [Compound I-142, 2-methyl-4-((2-(methylsulfonyl)phenyl)amino)-6-(pyridin-2-ylamino)-1,2-dihydro-3H-pyrazolo[3,4-b]pyridin-3-one] |

| Compound | Kd [nM] |
| --- | --- |
| COc1c(Nc2cc(Nc3cc(C)c(F)cn3)nc3[nH]n(C)c(=O)c23)cccc1-c1ccn(C)n1 [Compound I-120, 6-((5-fluoro-4-methylpyridin-2-yl)amino)-4-((2-methoxy-3-(1-methyl-1H-pyrazol-3-yl)phenyl)amino)-2-methyl-1,2-dihydro-3H-pyrazolo[3,4-b]pyridin-3-one] | 1 to 10 |
| COc1c(Nc2cc(Nc3ccc(C)nn3)nc3[nH]n(C)c(=O)c23)cccc1-c1ccn(C)n1 [Compound I-121, 4-((2-methoxy-3-(1-methyl-1H-pyrazol-3-yl)phenyl)amino)-2-methyl-6-((6-methylpyridazin-3-yl)amino)-1,2-dihydro-3H-pyrazolo[3,4-b]pyridin-3-one] | 0.5 to 1 |
| COc1c(Nc2cc(Nc3cccc(C#N)n3)nc3[nH]n(C)c(=O)c23)cccc1-c1ccn(C)n1 [Compound I-122, 6-((4-((2-methoxy-3-(1-methyl-1H-pyrazol-3-yl)phenyl)amino)-2-methyl-3-oxo-2,3-dihydro-1H-pyrazolo[3,4-b]pyridin-6-yl)amino)picolinonitrile] | 0.1 to 0.5 |
| COc1c(Nc2cc(Nc3cc(C)nc(C)n3)nc3[nH]n(C)c(=O)c23)cccc1-c1ccn(C)n1 [Compound I-123, 6-((2,6-dimethylpyrimidin-4-yl)amino)-4-((2-methoxy-3-(1-methyl-1H-pyrazol-3-yl)phenyl)amino)-2-methyl-1,2-dihydro-3H-pyrazolo[3,4-b]pyridin-3-one] | 0.1 to 0.5 |
| COc1c(Nc2cc(Nc3ccc(N4CCCCC4)cn3)nc3[nH]n(C)c(=O)c23)cccc1-c1ccn(C)n1 [Compound I-124, 4-((2-methoxy-3-(1-methyl-1H-pyrazol-3-yl)phenyl)amino)-2-methyl-6-((5-(piperidin-1-yl)pyridin-2-yl)amino)-1,2-dihydro-3H-pyrazolo[3,4-b]pyridin-3-one] | 1 to 10 |
| Cn1[nH]c2nc(NC(=O)C3CC3)cc(Nc3ccccc3P(C)(C)=O)c2c1=O [Compound I-125, N-(4-((2-(dimethylphosphoryl)phenyl)amino)-2-methyl-3-oxo-2,3-dihydro-1H-pyrazolo[3,4-b]pyridin-6-yl)cyclopropanecarboxamide] | > 10 |
| COCc1ccnc(Nc2cc(Nc3cccc(C(N)=O)c3OC)c3c(=O)n(C)[nH]c3n2)c1 [Compound I-126, 2-methoxy-3-((6-((4-(methoxymethyl)pyridin-2-yl)amino)-2-methyl-3-oxo-2,3-dihydro-1H-pyrazolo[3,4-b]pyridin-4-yl)amino)benzamide] | > 10 |
| COc1c(Nc2cc(NC(=O)C3CC3)nc3[nH]n(C)c(=O)c23)ccc(F)c1F [Compound I-127, N-(4-((3,4-difluoro-2-methoxyphenyl)amino)-2-methyl-3-oxo-2,3-dihydro-1H-pyrazolo[3,4-b]pyridin-6-yl)cyclopropanecarboxamide] | > 10 |
| CN(c1ccccc1Nc1cc(NC(=O)C2CC2)nc2[nH]n(C)c(=O)c12)S(C)(=O)=O [Compound I-129, N-(2-methyl-4-((2-(N-methylmethylsulfonamido)phenyl)amino)-3-oxo-2,3-dihydro-1H-pyrazolo[3,4-b]pyridin-6-yl)cyclopropanecarboxamide] | 0.1 to 0.5 |
| COc1c(Nc2cc(NC(=O)C3CC3)nc3[nH]n(C)c(=O)c23)cccc1-c1noc(C)n1 [Compound I-131] | 0.1 to 0.5 |
| COc1c(Nc2cc(NC(=O)C3CC3)nc3[nH]n(C)c(=O)c23)ccc(C(=O)N2CCCC2)c1F [Compound I-141] | 1 to 10 |
